The source of these data is patent publication US12187742B2 (XRAD Therapeutics, Inc., priority 2018, dated 2025).

In general, IC50 refers to the midpoint of a concentration-inhibition curve.

Structures can show the parent of a compound that is named as a salt. Bounds are passed on as bounds.

One test addresses ATM (Homo sapiens (Human), UniProt Q13315). The test can be described thus: ATM in Cell Western Assay (pKAP1 in etoposide-treated MCF-7 cells). It counts as cell-based. The gist of the method:
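Cells received compounds in a 10-dose, 3-fold series from a 1 μM final top concentration, then 100 μM etoposide, for 1 hr at 37° C. They were then fixed with paraformaldehyde and permeabilized with 0.1% Triton X-100. After immunostaining, plates were scanned on an infrared imager.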

In another test the target is DNA-PK (Homo sapiens (Human), UniProt P78527). The test can be described thus: DNA-PK Enzyme-Linked Immunosorbent Assay (phosphorylation of GST-p53 (1-101) peptide). It counts as biochemical. The settings on record: ELISA. The gist of the method:
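ELISA with plate-bound GST-p53 (1-101) phosphorylated by DNA-PK (0.1 μg/mL final) with 20 μM ATP for 1 h at 25 °C. Compounds tested over 10 3-fold doses from 100 nM top final. Phospho-p53 Ser15 detected by antibody, HRP and TMB, absorbance at 450 nm.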

[1] abbreviates: MCF-7 cells, etoposide 100 μM, 1 hr, pKAP1 readout.
Where [2] appears, read: pKAP1 in etoposide-treated MCF-7 cells.

ATM, sequence (Q13315 whole entry): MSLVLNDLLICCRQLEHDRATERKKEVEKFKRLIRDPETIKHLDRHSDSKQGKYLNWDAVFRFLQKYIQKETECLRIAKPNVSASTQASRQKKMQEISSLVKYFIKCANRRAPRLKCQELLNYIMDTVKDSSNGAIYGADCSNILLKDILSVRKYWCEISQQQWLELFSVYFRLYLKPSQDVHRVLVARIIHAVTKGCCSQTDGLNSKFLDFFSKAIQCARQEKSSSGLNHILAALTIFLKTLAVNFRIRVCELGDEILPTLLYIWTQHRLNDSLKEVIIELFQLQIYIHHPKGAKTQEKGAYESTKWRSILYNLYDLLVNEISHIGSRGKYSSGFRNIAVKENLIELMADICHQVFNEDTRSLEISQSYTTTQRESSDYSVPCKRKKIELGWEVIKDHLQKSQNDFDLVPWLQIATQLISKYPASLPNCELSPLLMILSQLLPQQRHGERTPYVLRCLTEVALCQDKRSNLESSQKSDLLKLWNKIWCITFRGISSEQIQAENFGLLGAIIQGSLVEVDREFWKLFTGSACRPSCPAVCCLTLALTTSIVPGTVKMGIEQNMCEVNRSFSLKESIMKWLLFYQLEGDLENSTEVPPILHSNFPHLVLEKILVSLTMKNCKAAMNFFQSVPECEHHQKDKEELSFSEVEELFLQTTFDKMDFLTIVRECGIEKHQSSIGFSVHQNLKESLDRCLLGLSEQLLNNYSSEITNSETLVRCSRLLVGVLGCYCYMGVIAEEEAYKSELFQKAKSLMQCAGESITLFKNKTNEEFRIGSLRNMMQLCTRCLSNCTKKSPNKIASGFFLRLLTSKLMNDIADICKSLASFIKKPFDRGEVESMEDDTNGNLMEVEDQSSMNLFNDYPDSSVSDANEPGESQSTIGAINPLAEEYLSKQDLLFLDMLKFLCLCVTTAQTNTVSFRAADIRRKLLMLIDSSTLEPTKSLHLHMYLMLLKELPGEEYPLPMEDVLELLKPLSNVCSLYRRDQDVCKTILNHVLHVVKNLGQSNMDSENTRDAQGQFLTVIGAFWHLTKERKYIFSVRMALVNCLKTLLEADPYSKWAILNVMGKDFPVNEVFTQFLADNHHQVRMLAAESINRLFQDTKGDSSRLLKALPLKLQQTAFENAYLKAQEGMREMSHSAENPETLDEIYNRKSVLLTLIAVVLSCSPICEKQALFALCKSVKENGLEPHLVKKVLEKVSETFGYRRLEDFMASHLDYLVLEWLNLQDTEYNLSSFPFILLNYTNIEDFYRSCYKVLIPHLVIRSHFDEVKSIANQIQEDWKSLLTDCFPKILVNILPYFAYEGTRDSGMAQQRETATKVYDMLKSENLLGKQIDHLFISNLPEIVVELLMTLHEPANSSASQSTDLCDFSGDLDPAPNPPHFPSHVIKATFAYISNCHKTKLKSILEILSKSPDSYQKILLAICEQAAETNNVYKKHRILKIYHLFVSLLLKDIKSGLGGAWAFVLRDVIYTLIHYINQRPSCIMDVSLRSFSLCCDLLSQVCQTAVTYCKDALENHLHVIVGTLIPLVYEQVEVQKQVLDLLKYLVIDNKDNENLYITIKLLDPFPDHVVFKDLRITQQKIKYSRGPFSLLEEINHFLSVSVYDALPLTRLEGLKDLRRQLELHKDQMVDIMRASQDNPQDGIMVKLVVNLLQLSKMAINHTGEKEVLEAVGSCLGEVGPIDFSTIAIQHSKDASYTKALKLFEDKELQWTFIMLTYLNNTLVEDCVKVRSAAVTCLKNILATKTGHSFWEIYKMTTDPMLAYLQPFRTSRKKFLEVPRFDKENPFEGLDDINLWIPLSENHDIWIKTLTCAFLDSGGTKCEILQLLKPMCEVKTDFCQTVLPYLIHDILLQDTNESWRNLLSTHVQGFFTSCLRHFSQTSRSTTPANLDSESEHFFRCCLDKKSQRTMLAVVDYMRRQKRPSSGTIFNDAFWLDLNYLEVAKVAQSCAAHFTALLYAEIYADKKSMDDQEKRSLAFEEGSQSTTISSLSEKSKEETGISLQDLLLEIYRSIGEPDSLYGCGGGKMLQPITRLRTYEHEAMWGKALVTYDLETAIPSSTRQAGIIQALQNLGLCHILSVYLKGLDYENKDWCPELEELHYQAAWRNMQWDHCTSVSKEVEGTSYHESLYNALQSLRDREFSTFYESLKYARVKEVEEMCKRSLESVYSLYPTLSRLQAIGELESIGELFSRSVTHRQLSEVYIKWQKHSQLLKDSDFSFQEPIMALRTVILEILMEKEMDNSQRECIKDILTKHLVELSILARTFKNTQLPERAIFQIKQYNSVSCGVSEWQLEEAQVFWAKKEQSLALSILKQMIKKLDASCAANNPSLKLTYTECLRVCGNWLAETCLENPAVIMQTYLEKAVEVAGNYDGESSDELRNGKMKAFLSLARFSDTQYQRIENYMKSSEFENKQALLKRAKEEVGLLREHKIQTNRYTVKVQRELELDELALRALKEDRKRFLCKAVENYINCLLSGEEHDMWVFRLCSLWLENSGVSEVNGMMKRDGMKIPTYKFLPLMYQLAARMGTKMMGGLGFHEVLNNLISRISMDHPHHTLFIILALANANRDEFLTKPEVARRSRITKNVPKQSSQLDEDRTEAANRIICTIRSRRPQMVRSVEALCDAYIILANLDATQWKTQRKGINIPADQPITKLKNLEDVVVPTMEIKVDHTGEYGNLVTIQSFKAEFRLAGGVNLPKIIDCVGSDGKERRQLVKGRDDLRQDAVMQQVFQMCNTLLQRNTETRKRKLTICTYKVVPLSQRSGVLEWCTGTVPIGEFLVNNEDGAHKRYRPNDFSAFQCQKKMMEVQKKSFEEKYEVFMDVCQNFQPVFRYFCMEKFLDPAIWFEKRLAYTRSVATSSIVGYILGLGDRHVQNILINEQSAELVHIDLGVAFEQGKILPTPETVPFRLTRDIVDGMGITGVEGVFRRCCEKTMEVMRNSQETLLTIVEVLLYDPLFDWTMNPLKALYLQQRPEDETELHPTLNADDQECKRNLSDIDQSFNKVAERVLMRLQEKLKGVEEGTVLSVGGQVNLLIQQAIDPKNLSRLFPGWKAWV

Take `Cc1ccc(S(=O)(=O)Nc2cc(-c3cc4c5c(cnc4cc3F)N(C)C(=O)C53CCC3)cnc2OCCCN2CCCCC2)cn1` [Example 217, N-(5-(7′-Fluoro-3′-methyl-2′-oxo-2′,3′-dihydrospiro[cyclobulane-1,1′-pyrrolo[2,3-c]quinolin]-8′-yl)-2-(3-(piperidin-1-yl)propoxy)pyridin-3-yl)-6-methylpyridine-3-sulfonamide hydrochloride]: the 50% inhibitory concentration (IC50) against ATM (setting [1]) and against DNA-PK (ATP 20 μM) was 1 to 100 nM in each case.

In the case of `CC(C)NCCOc1ncc(-c2cc3c(cc2F)ncc2c3[C@]3(C[C@@H](c4ccccc4F)C3)C(=O)N2C)cc1NS(C)(=O)=O` [Example 427, trans-N-(5-(7′-Fluoro-3-(2-fluorophenyl)-3′-methyl-2′-oxo-2′,3′-dihydrospiro[cyclobutane-1,1′-pyrrolo[2,3-c]quinolin]-8′-yl)-2-(2-(isopropylamino)ethoxy)pyridin-3-yl)methanesulfonamide], the IC50 was over 100 nM against ATM (setting [2]) and 1 to 100 nM against DNA-PK (20 μM ATP).

As for `CCc1ncc(S(=O)(=O)Nc2cc(-c3ccc4ncc5c(c4c3)C3(CCC3)C(=O)N5C)cnc2OCCCN(C)C)s1` [Example 245, N-(2-(3-(Dimethylamino)propoxy)-5-(3′-methyl-2′-oxo-2′,3′-dihydrospiro [cyclobutane-1,1′-pyrrolo [2,3-c]quinolin]-8′-yl)pyridin-3-yl)-2-ethylthiazole-5-sulfonamide], the IC50 was 1 to 100 nM against ATM (setting [1]) and under 0.5 nM against DNA-PK (ATP 20 μM).

In the case of `CC1CN(S(=O)(=O)Nc2cc(-c3ccc4ncc5c(c4c3)C3(CCC3)C(=O)N5C)cnc2OCCCN(C)C)CC(C)O1` (centres unmarked) [Example 184, N-(2-(3-(Dimethylamino)propoxy)-5-(3′-methyl-2′-oxo-2′,3′-dihydrospiro[cyclobutane-1,1′-pyrrolo[2,3-c]quinolin]-8′-yl)pyridin-3-yl)-2,6-dimethylmorpholine-4-sulfonamide], the IC50 on ATM (setting [1]) and on DNA-PK (ATP 20 μM) was 1 to 100 nM in each case.

Regarding `CN(C)CCCOc1ncc(-c2ccc3ncc4c(c3c2)C2(CC2)C(=O)N4Cc2cn[nH]c2)cc1NS(=O)(=O)c1ccccc1` [Example 30, N-(5-(3′-((1H-Pyrazol-4-yl)methyl)-2′-oxo-2′,3′-dihydrospiro[cyclopropane-1,1′-pyrrolo[2,3-c]quinolin]-8′-yl)-2-(3-(dimethylamino)propoxy)pyridin-3-yl)benzenesulfonamide], the IC50 on ATM (setting [1]) and against DNA-PK (ATP 20 μM) was 1 to 100 nM throughout.

On to `CN(C)CCCNc1ncc(-c2ccc3ncc4c(c3c2)C2(CC2)C(=O)N4C)cn1` [Example 70, 8′-(2-((3-(Dimethylamino)propyl)amino)pyrimidin-5-yl)-3′-methylspiro[cyclopropane-1,1′-pyrrolo[2,3-c]quinolin]-2′(3′-H)-one], for which the half-maximal inhibitory concentration (IC50) against ATM (setting [1]) and against DNA-PK (ATP 20 μM) was 1 to 100 nM throughout.

For the compound `Cc1ccc(S(=O)(=O)Nc2cc(-c3ccc4ncc5c(c4c3)C3(CCC3)C(=O)N5C)cnc2OCCCN(C)C)cn1` [Example 137, N-(2-(3-(Dimethylamino)propoxy)-5-(3′-methyl-2′-oxo-2′,3′-dihydrospiro[cyclobutane-1,1′-pyrrolo[2,3-c]quinolin]-8′-yl)pyridin-3-yl)-6-methylpyridine-3-sulfonamide hydrochloride], the IC50 against ATM (setting [1]) and against DNA-PK (ATP 20 μM) was 1 to 100 nM in each case.

For `CN(C)CCCOc1ncc(-c2ccc3ncc4c(c3c2)C2(CCC2)C(=O)N4C)cc1NS(=O)(=O)c1ccc(S(F)(F)(F)(F)F)cc1` [Example 134, N-(2-(3-(Dimethylamino)propoxy)-5-(3′-methyl-2′-oxo-2′,3′-dihydrospiro[cyclobulane-1,1′-pyrrolo[2,3-c]quinolin]-8′-yl)pyridin-3-yl)-4-(pentafluoro-16-sulfaneyl) benzenesulfonamide], the concentration for half-maximal inhibition (IC50) against ATM (setting [1]) and against DNA-PK (ATP 20 μM) was 1 to 100 nM each time.

For the compound `CN(C)CC1CCN(c2ncc(-c3ccc4ncc5c(c4c3)C3(CC3)C(=O)N5C)cc2NS(=O)(=O)C2CC2)CC1` [Example 115], the values for the IC50 against ATM (setting [1]) and at DNA-PK (ATP 20 μM) were 0.5 to 1 nM and 1 to 100 nM, respectively.

With `CN1C(=O)C2(CCC2)c2c1cnc1ccc(-c3cnc(OCCCN4CCCCC4)c(NS(=O)(=O)c4cscn4)c3)cc21` [Example 193, N-(5-(3′-Methyl-2′-oxo-2′,3′-dihydrospiro[cyclobutane-1,1′-pyrrolo[2,3-c]quinolin]-8′-yl)-2-(3-(piperidin-1-yl)propoxy)pyridin-3-yl)thiazole-4-sulfonamide hydrochloride], the IC50 against ATM (setting [1]) was in the range of 1 to 100 nM; against DNA-PK (ATP 20 μM), 0.5 to 1 nM.

`CN1C(=O)C2(CC2)c2c1cnc1ccc(-c3cnc(OC4CC(N(C)C)C4)c(NS(=O)(=O)c4ccccc4)c3)cc21` (centres unmarked) [Example 102, N-(2-(3-(Dimethylamino)cyclobutoxy)-5-(3′-methyl-2′-oxo-2′,3′-dihydrospiro[cyclopropane-1,1′-pyrrolo[2,3-c]quinolin]-8′-yl)pyridin-3-yl)benzenesulfonamide]: the IC50 against ATM (setting [1]) and at DNA-PK (ATP 20 μM) was 1 to 100 nM each time.

With `CN1C(=O)C2(CCC2)c2c1cnc1ccc(-c3cnc(OCCCN4CCOCC4)c(NS(=O)(=O)c4ccccc4)c3)cc21` [Example 131, N-(5-(3′-Methyl-2′-oxo-2′,3′-dihydrospiro[cyclobulane-1,1′-pyrrolo[2,3-c]quinolin]-8′-yl)-2-(3-morpholinopropoxy)pyridin-3-yl)benzenesulfonamide hydrochloride], the IC50 on ATM (setting [1]) and at DNA-PK (ATP 20 μM) was 1 to 100 nM throughout.

For `CC(C)NCCOc1ncc(-c2cc3c4c(cnc3cc2F)N(C)C(=O)C42CCC2)cc1NS(=O)(=O)C1CC1` [Example 365, N-(5-(7′-Fluoro-3′-methyl-2′-oxo-2′,3′-dihydrospiro[cyclobutane-1,1′-pyrrolo[2,3-c]quinolin]-8′-yl)-2-(2-(isopropylamino)ethoxy)pyridin-3-yl)cyclopropanesulfonamide hydrochloride], the IC50 against ATM (setting [2]) and against DNA-PK (20 μM ATP) was 1 to 100 nM in each case.

For the compound `CCc1ccc(N2CC3(C2)C(=O)N(C)c2cnc4cc(F)c(-c5cnc(OCCNC(C)C)c(NS(C)(=O)=O)c5)cc4c23)cc1` [Example 529, N-(5-(1-(4-Ethylphenyl)-7′-fluoro-3′-methyl-2′-oxo-2′,3′-dihydrospiro[azetidine-3,1′-pyrrolo[2,3-c]quinolin]-8′-yl)-2-(2-(isopropylamino)ethoxy)pyridin-3-yl)methanesulfonamide], the IC50 on ATM (setting [2]) and on DNA-PK (20 μM ATP) was 1 to 100 nM throughout.

With `CO[C@H]1C[C@]2(C1)C(=O)N(C)c1cnc3cc(F)c(-c4cnc(N5CCC(N6CCCCC6)CC5)c(NS(C)(=O)=O)c4)cc3c12` [Example 391, cis-N-(2-([1,4′-Bipiperidin]-1′-yl)-5-(7′-fluoro-3-methoxy-3′-methyl-2′-oxo-2′,3′-dihydrospiro[cyclobutane-1,1′-pyrrolo[2,3-c]quinolin]-8′-yl)pyridin-3-yl)methanesulfonamide], the IC50 at ATM (setting [2]) and against DNA-PK (20 μM ATP) was 1 to 100 nM each time.

As to `CCN(C)S(=O)(=O)Nc1cc(-c2ccc3ncc4c(c3c2)C2(CC2)C(=O)N4C)cnc1N1CCC(N2CCCCC2)CC1` [Example 214], the IC50 against ATM (setting [1]) and on DNA-PK (ATP 20 μM) was 0.5 to 1 nM in each case.
